For this test, the target named is recombinant Plk1 (Homo sapiens, UniProt P53350). In words: In Vitro Plk1 Enzyme Assay (SPA, GST-Cdc25C phosphorylation). The class given is biochemical. Particulars: ATP 64 nM, 90 minutes, read-out: IC50 (Plk1 enzyme inhibition).

This note sets out measurements from patent US7709471B2, “Compounds” (AstraZeneca AB, priority 2006, dated 2010).

The term pIC50 denotes the negative decadic logarithm of the IC50, by convention in mol/L.

pIC50: −log10 of the molar value.

Sequence of recombinant Plk1 (P53350 whole entry): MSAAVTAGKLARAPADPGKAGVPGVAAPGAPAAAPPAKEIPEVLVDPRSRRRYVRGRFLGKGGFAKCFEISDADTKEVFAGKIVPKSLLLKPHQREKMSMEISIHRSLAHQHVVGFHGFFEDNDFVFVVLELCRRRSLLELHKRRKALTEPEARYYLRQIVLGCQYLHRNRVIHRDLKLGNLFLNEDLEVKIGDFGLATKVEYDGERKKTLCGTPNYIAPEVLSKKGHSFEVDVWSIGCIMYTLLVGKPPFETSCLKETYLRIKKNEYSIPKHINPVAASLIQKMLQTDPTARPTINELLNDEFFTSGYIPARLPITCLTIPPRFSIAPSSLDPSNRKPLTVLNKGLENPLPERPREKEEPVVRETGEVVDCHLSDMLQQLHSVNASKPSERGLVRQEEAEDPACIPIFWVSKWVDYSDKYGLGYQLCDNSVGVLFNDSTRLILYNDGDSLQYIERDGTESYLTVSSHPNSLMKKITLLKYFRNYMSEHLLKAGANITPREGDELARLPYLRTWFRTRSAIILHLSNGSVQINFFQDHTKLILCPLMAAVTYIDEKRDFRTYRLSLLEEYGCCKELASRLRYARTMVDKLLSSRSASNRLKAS

As for `CSc1cccc(Nc2ncc3c(n2)N(C2CCCC2)CCC(=O)N3C)c1` [Example 163, 6-cyclopentyl-2-methyl-9-[(3-methylsulfanylphenyl)amino]-2,6,8,10-tetrazabicyclo[5.4.0]undeca-8,10,12-trien-3-one], the negative logarithm of the IC50 (pIC50) is above 4.00.
The figure for `CN1C(=O)CCN(C2CCCC2)c2nc(Nc3ccccc3Oc3ccc(C(C)(C)C)cc3)ncc21` [Example 153, 6-cyclopentyl-2-methyl-9-[[2-(4-tert-butylphenoxy)phenyl]amino]-2,6,8,10-tetrazabicyclo[5.4.0]undeca-8,10,12-trien-3-one] is above 4.00.
Consider “6-cyclopentyl-2-methyl-9-[(2,3,4-trimethoxyphenyl)amino]-2,6,8,10-tetrazabicyclo[5.4.0]undeca-8,10,12-trien-3-one [Example 130]”, for which the pIC50 is above 6.00.
As for `COc1ccc(Nc2ncc3c(n2)N(C2CCCC2)CCC(=O)N3C)cn1` [Example 267, 6-cyclopentyl-9-[(6-methoxypyridin-3-yl)amino]-2-methyl-2,6,8,10-tetrazabicyclo[5.4.0]undeca-8,10,12-trien-3-one], the figure is above 6.00; as for `COc1cc(C(=O)O)ccc1Nc1ncc2c(n1)N(C1CCCC1)CCC(=O)N2C` [Example 111, 4-[(2-cyclopentyl-6-methyl-5-oxo-2,6,9,11-tetrazabicyclo[5.4.0]undeca-7,9,11-trien-10-yl)amino]-3-methoxy-benzoic acid], above 6.52.
As for `COC(=O)[C@H]1CC[C@@H](NC(=O)c2ccc(Nc3ncc4c(n3)N(C3CCCC3)CCC(=O)N4C)c(OC)c2)C1` [Example 65, Methyl(1S,3R)-3-[[4-[(6-cyclopentyl-2-methyl-3-oxo-2,6,8,10-tetrazabicyclo[5.4.0]undeca-8,10,12-trien-9-yl)amino]-3-methoxy-benzoyl]amino]cyclopentane-1-carboxylate], the figure is above 6.00.
The figure for `CN1C(=O)CCN(C2CCCC2)c2nc(Nc3ccccc3C(=O)c3ccccc3)ncc21` [Example 144, 9-[(2-benzoylphenyl)amino]-6-cyclopentyl-2-methyl-2,6,8,10-tetrazabicyclo[5.4.0]undeca-8,10,12-trien-3-one] is above 4.00; for `CN1C(=O)CCN(C2CCCC2)c2nc(Nc3ccccc3S(N)(=O)=O)ncc21` [Example 145, 2-[(6-cyclopentyl-2-methyl-3-oxo-2,6,8,10-tetrazabicyclo[5.4.0]undeca-8,10,12-trien-9-yl)amino]benzenesulfonamide] it is above 4.00.
As to `CN1C(=O)CCN(C2CCCC2)c2nc(Nc3ccccc3Br)ncc21` [Example 147, 9-[(2-bromophenyl)amino]-6-cyclopentyl-2-methyl-2,6,8,10-tetrazabicyclo[5.4.0]undeca-8,10,12-trien-3-one], the pIC50 was above 4.00.
`COc1cc(C(=O)NC2CCN(C)CC2)ccc1Nc1ncc2c(n1)N(C1CCOCC1)CCC(=O)N2C` [Example 9, 3-Methoxy-4-[[6-methyl-2-(oxan-4-yl)-5-oxo-2,6,9,11-tetrazabicyclo[5.4.0]undeca-7,9,11-trien-10-yl]amino]-N-(1-methyl-4-piperidyl)benzamide]: the pIC50 was above 6.52.
On to `CN1C(=O)CCN(C2CCCC2)c2nc(Nc3ccccc3-c3ccccc3)ncc21` [Example 148, 6-cyclopentyl-2-methyl-9-[(2-phenylphenyl)amino]-2,6,8,10-tetrazabicyclo[5.4.0]undeca-8,10,12-trien-3-one], for which the negative-log IC50 (pIC50) was above 4.00.
For `CCCCc1ccccc1Nc1ncc2c(n1)N(C1CCCC1)CCC(=O)N2C` [Example 151, 9-[(2-butylphenyl)amino]-6-cyclopentyl-2-methyl-2,6,8,10-tetrazabicyclo[5.4.0]undeca-8,10,12-trien-3-one], the negative-log IC50 (pIC50) was above 4.00.
As for `CN(C)CC(C)(C)CNC(=O)c1ccc(Nc2ncc3c(n2)N(c2ccccc2)CCC(=O)N3C)c(Cl)c1` [Example 225, 3-chloro-N-(3-dimethylamino-2,2-dimethyl-propyl)-4-[(2-methyl-3-oxo-6-phenyl-2,6,8,10-tetrazabicyclo[5.4.0]undeca-8,10,12-trien-9-yl)amino]benzamide], the figure is above 6.00; as for `CN1C(=O)CCN(C2CCCC2)c2nc(Nc3cccc(S(C)(=O)=O)c3)ncc21` [Example 172, 6-cyclopentyl-2-methyl-9-[(3-methylsulfonylphenyl)amino]-2,6,8,10-tetrazabicyclo[5.4.0]undeca-8,10,12-trien-3-one], above 4.00; as for `CN1C(=O)CCN(C2CCCC2)c2nc(Nc3cccc(C#N)c3)ncc21` [Example 164, 3-[(6-cyclopentyl-2-methyl-3-oxo-2,6,8,10-tetrazabicyclo[5.4.0]undeca-8,10,12-trien-9-yl)amino]benzonitrile], above 4.00.
Take `CN1C(=O)CCN(C2CCCC2)c2nc(Nc3ccccc3NCCN3CCOCC3)ncc21` [Example 156, 6-cyclopentyl-2-methyl-9-[[2-(2-morpholin-4-ylethylamino)phenyl]amino]-2,6,8,10-tetrazabicyclo[5.4.0]undeca-8,10,12-trien-3-one]: the pIC50 is above 4.00.
As for `CCN1C(=O)CCN(C2CCCC2)c2nc(Nc3ccc(C(=O)NC4CCN(C)CC4)cc3OC)ncc21` [Example 259, 4-[(6-cyclopentyl-2-ethyl-3-oxo-2,6,8,10-tetrazabicyclo[5.4.0]undeca-8,10,12-trien-9-yl)amino]-3-methoxy-N-(1-methyl-4-piperidyl)benzamide], the figure is above 6.00; as for `CN1C(=O)CCN(C2CCCC2)c2nc(Nc3ccc(S(=O)(=O)N4CCCCC4)cc3)ncc21` [Example 134, 6-cyclopentyl-2-methyl-9-[[4-(1-piperidylsulfonyl)phenyl]amino]-2,6,8,10-tetrazabicyclo[5.4.0]undeca-8,10,12-trien-3-one], above 4.00; as for `CC(C)c1ccccc1Nc1ncc2c(n1)N(C1CCCC1)CCC(=O)N2C` [Example 150, 6-cyclopentyl-2-methyl-9-[(2-propan-2-ylphenyl)amino]-2,6,8,10-tetrazabicyclo[5.4.0]undeca-8,10,12-trien-3-one], above 6.00.
As for `CN1C(=O)CCN(C2CCCC2)c2nc(Nc3ccc(Cl)nc3)ncc21` [Example 266, 9-[(6-chloropyridin-3-yl)amino]-6-cyclopentyl-2-methyl-2,6,8,10-tetrazabicyclo[5.4.0]undeca-8,10,12-trien-3-one], the pIC50 is above 4.00.
As for `CN1C(=O)CCN(C2CCCC2)c2nc(Nc3ccccc3S(C)(=O)=O)ncc21` [Example 149, 6-cyclopentyl-2-methyl-9-[(2-methylsulfonylphenyl)amino]-2,6,8,10-tetrazabicyclo[5.4.0]undeca-8,10,12-trien-3-one], the figure is above 4.00.
As for `CN1C(=O)CCN(C2CCCC2)c2nc(Nc3ccccc3CN3CCOCC3)ncc21` [Example 160, 6-cyclopentyl-2-methyl-9-[[2-(morpholin-4-ylmethyl)phenyl]amino]-2,6,8,10-tetrazabicyclo[5.4.0]undeca-8,10,12-trien-3-one], the figure is above 4.00; as for `CN1C(=O)CCN(C2CCCC2)c2nc(Nc3ccc(S(=O)(=O)NCCO)cc3)ncc21` [Example 117, 4-[(6-cyclopentyl-2-methyl-3-oxo-2,6,8,10-tetrazabicyclo[5.4.0]undeca-8,10,12-trien-9-yl)amino]-N-(2-hydroxyethyl)benzenesulfonamide], above 4.00.
For `CCNS(=O)(=O)c1ccccc1Nc1ncc2c(n1)N(C1CCCC1)CCC(=O)N2C` [Example 154, 2-[(6-cyclopentyl-2-methyl-3-oxo-2,6,8,10-tetrazabicyclo[5.4.0]undeca-8,10,12-trien-9-yl)amino]-N-ethyl-benzenesulfonamide], the pIC50 was above 4.00.
The figure for “6-cyclopentyl-2-methyl-9-[(2,4,6-trimethoxyphenyl)amino]-2,6,8,10-tetrazabicyclo[5.4.0]undeca-8,10,12-trien-3-one [Example 112]” is above 6.00; for `CN1C(=O)CCN(C2CCCC2)c2nc(Nc3ccccc3Oc3ccccc3)ncc21` [Example 146, 6-cyclopentyl-2-methyl-9-[(2-phenoxyphenyl)amino]-2,6,8,10-tetrazabicyclo[5.4.0]undeca-8,10,12-trien-3-one] it is above 4.00; for `CN1C(=O)c2cccc(Nc3ncc4c(n3)N(C3CCCC3)CCC(=O)N4C)c2C1=O` [Example 137, 4-[(6-cyclopentyl-2-methyl-3-oxo-2,6,8,10-tetrazabicyclo[5.4.0]undeca-8,10,12-trien-9-yl)amino]-2-methyl-isoindole-1,3-dione] it is above 4.00.
As for `CN1CCC(NC(=O)c2ccc(Nc3ncc4c(n3)N(C3CCCC3)CCC(=O)N4)cc2)CC1` [Example 254, 4-[(6-cyclopentyl-3-oxo-2,6,8,10-tetrazabicyclo[5.4.0]undeca-8,10,12-trien-9-yl)amino]-N-(1-methyl-4-piperidyl)benzamide], the figure is above 4.00; as for `CN1C(=O)CCN(C2CCCC2)c2nc(Nc3ccc(N4CCOCC4)cc3)ncc21` [Example 121, 6-cyclopentyl-2-methyl-9-[(4-morpholin-4-ylphenyl)amino]-2,6,8,10-tetrazabicyclo[5.4.0]undeca-8,10,12-trien-3-one], above 4.00.
The figure for `O=C1CCN(c2ccccc2)c2nc(Nc3ccc(C(=O)NCCN4CCOCC4)cc3)ncc2N1` [Example 249, N-(2-morpholin-4-ylethyl)-4-[(3-oxo-6-phenyl-2,6,8,10-tetrazabicyclo[5.4.0]undeca-7,9,11-trien-9-yl)amino]benzamide] is above 4.00; for `CN1C(=O)CCN(C2CCCC2)c2nc(Nc3ccccc3Cc3ccccc3)ncc21` [Example 157, 9-[(2-benzylphenyl)amino]-6-cyclopentyl-2-methyl-2,6,8,10-tetrazabicyclo[5.4.0]undeca-8,10,12-trien-3-one] it is above 4.00; for `CCOc1cccc(Nc2ncc3c(n2)N(C2CCCC2)CCC(=O)N3C)c1` [Example 162, 6-cyclopentyl-9-[(3-ethoxyphenyl)amino]-2-methyl-2,6,8,10-tetrazabicyclo[5.4.0]undeca-8,10,12-trien-3-one] it is above 6.00.
